Data taken from US20210353784A1, “DETECTING AND TREATING CANCERS USING CELL PENETRANT MTP53-OLIGOMERIZATION-DOMAIN PEPTIDE” (priority 2020, published 2021).
Ends that are not written are not given here.

Test system: MDA-MB-468 and MCF7 cells
Test: Live cell imaging staining with Cy5 conjugated first and second-generation TAT-mtp53ODP
Type: cell-based, Human
Settings: 500 nM, 4 h incubation
Description: FIG. 7 quantifies the results of live cell imaging staining of MDA-MB-468 and MCF7 cells with 4 h incubation of 500 nM Cy5 conjugated first (TAT-mtp53ODP-35mer, SEQ ID NO: 3) and second-generation (TAT-mtp53ODP-27mer (SEQ ID NO: 7) and TAT-mtp53ODP-37mer (SEQ ID NO: 8)) after 4 h incubation. Cells were imaged by confocal microscopy. Quantification of Cy5 conjugated TAT-mtp53ODP uptake in MDA-MB-468 cells and MCF7 cells was conducted by Nikon Element analysis. […] Three independent experiments with biological replicate were performed. Statistical analyses were conducted in Graphpad Prism 9. Results are expressed as mean+SEM. Statistical significance for hypothesis testing was performed by Student's t-test. The following format was used to assign significance based on P-value: *p-value ≤0.05, ** p-value […] p-value ≤0.001.
Live cell imaging staining was also performed on second-generation peptides based on Cy5-conjugated SEQ ID NO: 7 and SEQ ID NO: 8. FIG. 7 depicts the results of live cell imaging staining of MDA-MB-468 and MCF7 cells with 4 h incubation of 500 nM Cy5 conjugated first (TAT-mtp53ODP-35mer, SEQ ID NO: 3) and second-generation (TAT-mtp53ODP-27mer (SEQ ID NO: 7) and Cy5-conjugated TAT-mtp53ODP-37mer (SEQ ID NO: 8)) after 4 h incubation. Cells were imaged by confocal microscopy. A scrambled peptide was included as a control. […]

Sequence: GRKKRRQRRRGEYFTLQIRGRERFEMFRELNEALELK (also: Cy5 conjugate) [TAT-mtp53ODP-37mer, Cy5 conjugated second-generation TAT-mtp53ODP peptide]
- activity relative to TAT-mtp53ODP-35mer (SEQ ID NO: 3): enhanced activity

Sequence: GRKKRRQRRGEYFTLQIRGRERFEMFR (also: Cy5 conjugate) [TAT-mtp53ODP-27mer, Cy5 conjugated second-generation TAT-mtp53ODP peptide]
- activity relative to TAT-mtp53ODP-35mer (SEQ ID NO: 3): reduced activity
